Reference: US9708306B2, “Benzimidazole derivatives and preparation process and pharmaceutical uses thereof” (WUHAN LL SCIENCE AND TECHNOLOGY DEVELOPMENT CO., LTD, priority 2015, dated 2017)
Where two headings read alike, the source gives them in different places.

Legend:
[1] = system: normal rats; assay: Effect on blood pressure of normal rats by single oral administration; format: in vivo, Wistar rats; conditions: Rattus norvegicus, po, single, normal rats; for inhibition in vivo at 0.5 mg/kg / inhibition in vivo at 1 mg/kg / inhibition in vivo at 2 mg/kg: 8 h, read-out: blood pressure reduction at 8 h after the administration; for inhibition in vivo at 0.5 mg/kg / change in vivo at 0.5 mg/kg: 0.5 mg/kg p.o.; for inhibition in vivo at 1 mg/kg / change in vivo at 1 mg/kg: 1.0 mg/kg p.o.; for inhibition in vivo at 2 mg/kg / change in vivo at 2 mg/kg: 2.0 mg/kg p.o.; for change in vivo at 0.5 mg/kg / change in vivo at 1 mg/kg / change in vivo at 2 mg/kg: read-out: variations on heart rate
[2] = system: spontaneously hypertensive rats (SHR); assay: Effect on reducing blood pressure of spontaneously hypertensive rats (SHR) by multiple oral administrations; format: in vivo; conditions: for blood pressure reduction effect compared with Azilsartan medoxomil / reduction effects on the heart rate of SHR rats: result in words; for reduction effects on the heart rate of SHR rats: during the whole administration
[3] = system: renovascular hypertensive rats; assay: Effect on reducing blood pressure of renovascular hypertensive rats by single oral administration; format: in vivo, Wistar rats; conditions: for change in vivo at 0.5 mg/kg / inhibition in vivo at 0.5 mg/kg / change in vivo at 1 mg/kg / inhibition in vivo at 1 mg/kg / change in vivo at 2 mg/kg / inhibition in vivo at 2 mg/kg: Rattus norvegicus, single oral administration; for change in vivo at 0.5 mg/kg / change in vivo at 1 mg/kg / change in vivo at 2 mg/kg: RHR, read-out: Variations on heart rate; for inhibition in vivo at 0.5 mg/kg / inhibition in vivo at 1 mg/kg / inhibition in vivo at 2 mg/kg: two-kidney one-clip RHR, measured 1-10 h, read-out: Maximum blood pressure reduction; for blood pressure reduction at 24 hours after the administration / blood pressure reduction effect compared with Azilsartan medoxomil / lasting time of the blood pressure reduction effect compared with Azilsartan medoxomil: renal artery-ligated rat; for blood pressure reduction at 24 hours after the administration: dose not stated; for blood pressure reduction effect compared with Azilsartan medoxomil / lasting time of the blood pressure reduction effect compared with Azilsartan medoxomil: result in words
[4] = Rattus norvegicus, 0.5 mg/kg oral once per day, SHR, 1 hour after the administration, read-out: Maximum blood pressure reduction, 1st-day administration
[5] = Rattus norvegicus, 0.5 mg/kg oral once per day, SHR, 1 hour after the administration, read-out: Maximum blood pressure reduction, 7th-day administration
[6] = Rattus norvegicus, 0.5 mg/kg oral once per day, SHR, 1 hour after the administration, read-out: Maximum blood pressure reduction, 14th-day administration
[7] = Rattus norvegicus, 0.5 mg/kg oral, SHR, read-out: Heart Rate (effect on reducing heart rate)
[8] = Rattus norvegicus, 1.0 mg/kg oral once per day, SHR, 1 hour after the administration, read-out: Maximum blood pressure reduction, 1st-day administration
[9] = Rattus norvegicus, 1.0 mg/kg oral once per day, SHR, 1 hour after the administration, read-out: Maximum blood pressure reduction, 7th-day administration
[10] = Rattus norvegicus, 1.0 mg/kg oral once per day, SHR, 1 hour after the administration, read-out: Maximum blood pressure reduction, 14th-day administration
[11] = Rattus norvegicus, 1.0 mg/kg oral, SHR, read-out: Heart Rate (effect on reducing heart rate)
[12] = Rattus norvegicus, 2.0 mg/kg oral once per day, SHR, 1 hour after the administration, read-out: Maximum blood pressure reduction, 1st-day administration
[13] = Rattus norvegicus, 2.0 mg/kg oral once per day, SHR, 1 hour after the administration, read-out: Maximum blood pressure reduction, 7th-day administration
[14] = Rattus norvegicus, 2.0 mg/kg oral once per day, SHR, 1 hour after the administration, read-out: Maximum blood pressure reduction, 14th-day administration
[15] = Rattus norvegicus, 2.0 mg/kg oral, SHR, read-out: Heart Rate (effect on reducing heart rate)

Compound | inhibition in vivo at 0.5 mg/kg [1] | inhibition in vivo at 1 mg/kg [1] | inhibition in vivo at 2 mg/kg [1] | change in vivo at 0.5 mg/kg [1] | change in vivo at 1 mg/kg [1] | change in vivo at 2 mg/kg [1] | inhibition in vivo at 0.5 mg/kg [2, 4] | inhibition in vivo at 0.5 mg/kg [2, 5] | inhibition in vivo at 0.5 mg/kg [2, 6] | inhibition in vivo at 1 mg/kg [2, 8] | inhibition in vivo at 1 mg/kg [2, 9] | inhibition in vivo at 1 mg/kg [2, 10] | inhibition in vivo at 2 mg/kg [2, 12] | inhibition in vivo at 2 mg/kg [2, 13] | inhibition in vivo at 2 mg/kg [2, 14] | change in vivo at 0.5 mg/kg [3] | inhibition in vivo at 0.5 mg/kg [3] | change in vivo at 1 mg/kg [3] | inhibition in vivo at 1 mg/kg [3] | change in vivo at 2 mg/kg [3] | other results
CCOc1nc2cccc(C(=O)OCc3no[n+]([O-])c3C)c2n1Cc1ccc(-c2ccccc2-c2noc(=O)[nH]2)cc1 [QR01023] | 5.3 ± 1.4% | 3.6 ± 6.1% | 4.3 ± 2.1% | -3 ± 2% | 6% | -3 ± 5% | 25 ± 8.2% | 24 ± 7.1% | 25 ± 6.8% | 39 ± 6% | 38 ± 7% | 42 ± 5.3% | 45 ± 7.3% | 48 ± 9.5% | 40 ± 8.2% | -8 ± 5% | 18 ± 2.3% | -16 ± 7% | 32 ± 8.1% | -23 ± 6% | inhibition in vivo at 0.5 mg/kg [2, 7]: 20 ± 3%; inhibition in vivo at 1 mg/kg [2, 11]: 14 ± 4%; inhibition in vivo at 2 mg/kg [2, 15]: 23 ± 5%; blood pressure reduction effect compared with Azilsartan medoxomil ([2]; SHR): obviously superior to that of the Azilsartan medoxomil positive drug; reduction effects on the heart rate of SHR rats [2]: significant reduction effects on the heart rate; inhibition in vivo at 2 mg/kg [3]: 42 ± 4.6%; blood pressure reduction at 24 hours after the administration [3]: 18%; blood pressure reduction effect compared with Azilsartan medoxomil [3]: obviously superior to that of the Azilsartan medoxomil positive drug; lasting time of the blood pressure reduction effect compared with Azilsartan medoxomil [3]: close to that of Azilsartan medoxomil
CCOc1nc2cccc(C(=O)OCOC(=O)C(C)(C)C)c2n1Cc1ccc(-c2ccccc2-c2noc(=O)[nH]2)cc1 [QR01005] | 6.3 ± 1.3% | 3.6 ± 2.1% | 4.8 ± 2.3% | -3 ± 1% | -6 ± 6% | 8% | 16 ± 4.8% | 18 ± 5.2% | 21 ± 3.9% | 38 ± 3.7% | 40 ± 6.2% | 42 ± 6.1% | 45 ± 4.8% | 41 ± 6.2% | 45 ± 7.2% | -10 ± 3% | 16 ± 3.2% | -21 ± 6% | 36 ± 3.1% | -25 ± 6% | inhibition in vivo at 1 mg/kg [2, 11]: 23 ± 6%; inhibition in vivo at 2 mg/kg [2, 15]: 21 ± 4%; inhibition in vivo at 5 mg/kg ([2]; Rattus norvegicus, 5 mg/kg oral, SHR, read-out: Heart Rate (effect on reducing heart rate)): 18 ± 5%; blood pressure reduction effect compared with Azilsartan medoxomil ([2]; SHR): obviously superior to that of the Azilsartan medoxomil positive drug; reduction effects on the heart rate of SHR rats [2]: significant reduction effects on the heart rate; inhibition in vivo at 2 mg/kg [3]: 43 ± 3.5%; blood pressure reduction at 24 hours after the administration [3]: 21%; blood pressure reduction effect compared with Azilsartan medoxomil [3]: obviously superior to that of the Azilsartan medoxomil positive drug; lasting time of the blood pressure reduction effect compared with Azilsartan medoxomil [3]: close to that of Azilsartan medoxomil
CCOc1nc2cccc(C(=O)OC(C)OC(=O)OC(C)C)c2n1Cc1ccc(-c2ccccc2-c2noc(=O)[nH]2)cc1 (stereo not shown) [QR01003] | 5.6 ± 3.1% | 5.4 ± 1.9% | 6.4 ± 3.4% | -2 ± 2% | 4% | -3 ± 4% | 18 ± 4.6% | 21 ± 6.3% | 17 ± 6.8% | 31 ± 6.8% | 35 ± 7.3% | 36 ± 8.1% | 39 ± 5% | 41 ± 5.7% | 44 ± 6.1% | 2% | 15 ± 1.8% | -3 ± 2% | 28 ± 2.9% | -5 ± 2% | inhibition in vivo at 2 mg/kg [3]: 36 ± 4.3%; blood pressure reduction effect compared with Azilsartan medoxomil [3]: close to that of Azilsartan medoxomil
CCOc1nc2cccc(C(=O)OCc3no[n+]([O-])c3CO[N+](=O)[O-])c2n1Cc1ccc(-c2ccccc2-c2noc(=O)[nH]2)cc1 [QR01034] | 3.4 ± 2.6% | 5.1 ± 3.6% | 3.4 ± 5% | -2 ± 5% | 5% | -2 ± 5% | 25 ± 8.1% | 28 ± 7.4% | 26 ± 5.1% | 39 ± 7.5% | 39 ± 6.8% | 42 ± 5.9% | 44 ± 8.6% | 45 ± 7% | 46 ± 7.3% | -12 ± 8% | 23 ± 1.9% | -15 ± 7% | 36 ± 4.8% | -21 ± 7% | inhibition in vivo at 0.5 mg/kg [2, 7]: 19 ± 2%; inhibition in vivo at 1 mg/kg [2, 11]: 15 ± 4%; inhibition in vivo at 2 mg/kg [2, 15]: 21 ± 3%; blood pressure reduction effect compared with Azilsartan medoxomil ([2]; SHR): obviously superior to that of the Azilsartan medoxomil positive drug; reduction effects on the heart rate of SHR rats [2]: significant reduction effects on the heart rate; inhibition in vivo at 2 mg/kg [3]: 45 ± 6%; blood pressure reduction at 24 hours after the administration [3]: 25%; blood pressure reduction effect compared with Azilsartan medoxomil [3]: obviously superior to that of the Azilsartan medoxomil positive drug; lasting time of the blood pressure reduction effect compared with Azilsartan medoxomil [3]: close to that of Azilsartan medoxomil
